How the values were obtained:
[1] = biological target: T1, NAD-independent α-glycerol-3-phosphate dehydrogenase (Priestia megaterium, UniProt D5DYU7); test: α-glycerol-3-phosphate dehydrogenase activity assay (rate of INT reduction, absorbance at 505nm, 37°C); assay type: biochemical, B. megaterium; conditions: concentration of inhibitor bringing about 50% inhibition
T1 sequence (D5DYU7 1-559): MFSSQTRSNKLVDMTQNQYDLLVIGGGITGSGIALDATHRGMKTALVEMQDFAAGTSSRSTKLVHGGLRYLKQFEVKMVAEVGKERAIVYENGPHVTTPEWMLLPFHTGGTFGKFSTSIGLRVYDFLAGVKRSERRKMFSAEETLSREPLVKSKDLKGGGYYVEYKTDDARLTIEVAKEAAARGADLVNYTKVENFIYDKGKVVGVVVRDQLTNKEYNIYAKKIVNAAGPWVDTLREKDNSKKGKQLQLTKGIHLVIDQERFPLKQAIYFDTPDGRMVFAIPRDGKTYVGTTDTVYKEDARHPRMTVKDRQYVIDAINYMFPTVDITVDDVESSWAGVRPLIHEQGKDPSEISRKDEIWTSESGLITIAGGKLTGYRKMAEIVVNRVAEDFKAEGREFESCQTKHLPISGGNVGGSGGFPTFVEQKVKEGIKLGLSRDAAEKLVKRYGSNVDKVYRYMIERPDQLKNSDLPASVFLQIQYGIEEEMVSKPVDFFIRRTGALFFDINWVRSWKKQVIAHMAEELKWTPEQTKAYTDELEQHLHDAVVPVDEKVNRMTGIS
Procedure: Aliquots of the resulting cell-free extract and other samples containing partially purified α-glycerol-3-phosphate dehydrogenase were used in the following assay test system:
The rate of change of absorbance was measured at 505nm, 37°C in a spectrophotometer. According to such test, the specific activity of the purified enzyme (from gel filtration chromatography) was 1.0 unit/mg protein; a unit is number of µmoles of INT reduced per min.

[2] = biological target: enzyme from E. coli (Escherichia coli, UniProt P13035); conditions: cited from earlier work
Chain of enzyme from E. coli (P13035 whole entry): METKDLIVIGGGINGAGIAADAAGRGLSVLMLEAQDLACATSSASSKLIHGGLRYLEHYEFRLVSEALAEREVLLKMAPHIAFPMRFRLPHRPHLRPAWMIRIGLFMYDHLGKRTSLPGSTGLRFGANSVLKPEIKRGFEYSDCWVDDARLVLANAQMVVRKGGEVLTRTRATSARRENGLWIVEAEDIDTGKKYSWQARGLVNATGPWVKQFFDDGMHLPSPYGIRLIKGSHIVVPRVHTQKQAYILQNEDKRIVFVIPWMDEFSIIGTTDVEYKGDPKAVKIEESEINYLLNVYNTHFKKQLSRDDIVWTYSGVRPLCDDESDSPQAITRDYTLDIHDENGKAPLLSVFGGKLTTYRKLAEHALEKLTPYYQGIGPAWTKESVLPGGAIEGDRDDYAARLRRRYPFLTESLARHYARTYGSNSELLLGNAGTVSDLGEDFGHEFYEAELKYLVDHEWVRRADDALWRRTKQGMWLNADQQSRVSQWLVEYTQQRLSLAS

| Compound | 50% inhibition of enzyme activity (concentration) [1] [%] | Km [2] [µM] |
| --- | --- | --- |
| ammonium sulphate | 1 |  |
| O=P(O)(O)OC[C@H](O)CO [L-α-glycerol-3-phosphate] |  | 400 |
